The text below walks through data of patent US20090258840A1, “METHOD AND COMPOSITIONS FOR TREATING HEMATOLOGICAL MALIGNANCIES” (Gilead Sciences, Inc., priority 2006, published 2009).

Series [1] relates to KG-1 (Myeloid). Put plainly: Anti-proliferation in KG-1 cells. Format: cell-based, human. Conditions: KG-1 (Myeloid), 3 days incubation, read-out: Anti-Proliferation EC50.
Description: (§1) Compounds were tested using human and canine lymphoblasts (stimulated with a T-cell mitogen phytohaemagglutinin (PHA) or a B-cell mitogen pokeweed mitogen (PWM)), two T-lymphoid cell lines derived from patients with acute lymphocytic leukemia (CEM and Molt-4), two myeloid cell lines derived from patients with acute myelogenous leukemia (KG-1 and HL-60), two B-lymphoid cell lines derived from Burkitt's lymphoma (Daudi and Raji), a B-lymphoid cell line from non-Hodgkin's lymphoma (RL), a T-lymphoid cell line from cutaneous T-lymphoma (PM-1), and a monocytic cell line from histiocytic lymphoma (U937). Lymphoblasts (150,000 cells per microtiter well) and leukemia/lymphoma cell lines (30,000 cells per well) were incubated with 5-fold serial dilutions of compounds for 3 days.
Series [2] concerns PHA-blast (canine T-cells). Briefly: Anti-proliferation in canine PHA-lymphoblasts (BrdU/XTT). The note with it: Canis lupus familiaris, T-cell, 72 h, 3 days incubation. In kind it is cell-based. In general terms: Tetrazolium dyes change colour on reduction, which living cells bring about.
For series [3], the system named is PWM-blast (human B-cells). Put plainly: Anti-proliferation in human PWM-lymphoblasts (BrdU/XTT). The note with it: B-cell, 72 h, 3 days incubation. Format: cell-based.
Series [4] concerns PHA-blast (human T-cells). Briefly: Anti-proliferation in human PHA-lymphoblasts (BrdU/XTT). The note with it: PHA-blast (human T-cells), 3 days incubation, read-out: Anti-Proliferation EC50. In kind it is cell-based.
In series [5] the test system is CEM (T-lymphoid). Put plainly: Anti-proliferation in CEM cells. In kind it is cell-based, human. Conditions: CEM (T-lymphoid), 3 days incubation, read-out: Anti-Proliferation EC50.
Description: as §1
A short description of series [6]: Hygroscopicity. In kind it is physicochemical.
The test system of series [7] is RL (B-lymphoid). Briefly: Anti-proliferation in RL cells. Conditions: Homo sapiens, 72 h, 3 days incubation. Format: cell-based.
Description: as §1
For series [8], the system named is PM-1 (T-lymphoid). Put plainly: Anti-proliferation in PM-1 cells. In kind it is cell-based, human. The note with it: PM-1 (T-lymphoid), 3 days incubation, read-out: Anti-Proliferation EC50.
Description: as §1
Series [9] relates to Raji (B-lymphoid). Put plainly: Anti-proliferation in Raji cells. In kind it is cell-based, human. Conditions: Homo sapiens, 72 h, 3 days incubation.
Description: as §1
Series [10] deals with Daudi (B-lymphoid). Put plainly: Anti-proliferation in Daudi cells. In kind it is cell-based, human. The note with it: 3 days incubation.
Description: as §1
Series [11] relates to HL-60 (Myeloid). Briefly: Anti-proliferation in HL-60 cells. Format: cell-based, human. Conditions: HL-60 (Myeloid), 3 days incubation, read-out: Anti-Proliferation EC50.
Description: as §1
Series [12] concerns lymphoblasts and leukemia/lymphoma cell lines. Put plainly: Anti-proliferation, EC50 range over the cell panel. Format: cell-based. Conditions: range over a variety of lymphoblasts and leukemia/lymphoma cell lines. As for the experimental part:
A variety of compounds that are used for treatment of hematologic malignancies were also tested, including a DNA polymerase inhibitor (ara-C), DNA polymerase/ribonucleotide reductase inhibitors (cladribine, clofarabine, fludarabine, gemcitabine), an adenosine deaminase inhibitor (deoxycoformycin), a DNA methylation inhibitor (decitabine), a […] (doxorubicin), and a mitosis inhibitor (vincristine). All compounds, with the exception of doxorubicin and vincristine, are nucleoside analogs; ara-C, gemcitabine, and decitabine are cytosine analogs and the rest are adenosine analogs. cpr-PMEDAP and PMEG can be considered adenosine and guanosine analogs, respectively. Compounds were tested using human and canine lymphoblasts (stimulated with a T-cell mitogen phytohaemagglutinin (PHA) or a B-cell mitogen pokeweed mitogen (PWM)), two T-lymphoid cell lines derived from patients with acute lymphocytic leukemia (CEM and Molt-4), two myeloid cell lines derived from patients with acute myelogenous leukemia (KG-1 and HL-60), two B-lymphoid cell lines derived from Burkitt's lymphoma (Daudi and Raji), a B-lymphoid cell line from non-Hodgkin's lymphoma (RL), a T-lymphoid cell line from cutaneous T-lymphoma (PM-1), and a monocytic cell line from histiocytic lymphoma (U937).
Lymphoblasts (150,000 cells per microtiter well) and leukemia/lymphoma cell lines (30,000 cells per well) were incubated with 5-fold serial dilutions of compounds for 3 days. BrdU assay was performed as follows: Lymphoblasts were incubated with 5-fold serial dilutions of compounds in microtiter plates (150,000 cells per well) for 3 days. On Day 3, cells were labeled with 10 μM BrdU for 3 hrs and the amount of BrdU incorporated into cellular DNA was quantified by Enzyme-Linked Immunosorbent Assay (ELISA). Alternatively, cells were incubated with 1 mg/mL XTT reagent (sodium 3,3′-[1[(phenylamino) carbonyl]-3,4-tetrazolium]-bis(4-methoxy-6-nitro) benzene sulfonic acid hydrate) and 1% PMS (phenazine methosulfate) for 2 hrs, and color change (mitochondrial dehydrogenase reduces yellow-colored XTT to orange-colored formazan salt) was quantified. […] Assays were repeated 2-20 times, until the standard error of the mean (SEM) became smaller than 50% of the mean value.

For series [13], the system named is Molt 4 (T-lymphoid). Put plainly: Anti-proliferation in Molt 4 cells. The note with it: Molt 4 (T-lymphoid), 3 days incubation, read-out: Anti-Proliferation EC50. Format: cell-based, human.
Description: as §1
For series [14], the system named is PWM-blast (canine B-cells). Briefly: Anti-proliferation in canine PWM-lymphoblasts (BrdU/XTT). Format: cell-based. The note with it: Canis lupus familiaris, B-cell, 72 h, 3 days incubation.
In series [15] the test system is U937 (Monocytic). Put plainly: Anti-proliferation in U937 cells. In kind it is cell-based, human. Conditions: U937 (Monocytic), 3 days incubation, read-out: Anti-Proliferation EC50.
Series [16] concerns a variety of tumor cell lines. Conditions: in vitro cell culture; cited from earlier work.

Where two headings read alike, the source gives them in different places.

Turning to `CCOC(=O)C(C)NP(=O)(COCCn1cnc2c(NC3CC3)nc(N)nc21)NC(C)C(=O)OCC` (stereo not drawn) [Compound 1], the EC50 is 1.04 µM in series [1] (Homo sapiens, 72 h); 0.03 µM in series [2]; 0.042 µM in [3]; 0.135 µM in [4] (T-cell, 72 h); 0.156 µM in series [5] (Homo sapiens, 72 h); 0.078 µM in series [7]. The EC50 in series [8] (Homo sapiens, 72 h) was 0.125 µM; in series [9], 0.089 µM; in series [10] (Homo sapiens, 72 h), 0.027 µM; in series [11] (Homo sapiens, 72 h) it was 0.214 µM; in series [12] it was 0.027 to 1.04 µM; in series [13] (Homo sapiens, 72 h), 0.0273 µM. For the same compound, the EC50 was 0.014 µM in [14] and 0.394 µM in series [15] (Homo sapiens, U-937, 72 h). Moreover, in series [6], the hygroscopicity result is “hygroscopic”.
On to `Nc1nc(NC2CC2)c2ncn(CCOCP(=O)(O)O)c2n1` [GS-8369, 9-(2-phosphonylmethoxyethyl)-N^6-cyclopropyl-2,6-diaminopurine], for which the EC50 was determined as 1.11 µM in [1]; 2.35 µM in series [4]; 2.22 µM in series [5]; 6.73 µM in series [8]; 1.84 µM in [10]; 1.61 µM in series [11]. The EC50 in [13] stood at 1.47 µM; in series [15], 4.48 µM. Moreover, the “antiproliferative and differentiation-inducing effect” value in series [16] is listed as “effective”.
